# According to patent EP4273147A1, “SUBSTITUTED SPIROLACTAMS, SALTS THEREOF AND THEIR USE AS HERBICIDALLY ACTIVE SUBSTANCES” (Bayer Aktiengesellschaft, priority 2022, dated 2023):
# How the values were obtained:
# ECHCG [1] = assay: Herbicidal pre-emergence action (Table A2); type: in vivo, Echinochloa crus-galli; conditions: application rate 320 g/ha; visual grading after ca. 3 weeks
# In short: (§1)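 Paired sowings (monocot weed with dicot weed) in potted sandy loam, seeds soil-covered.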
# LOLRI [2] = assay: Herbicidal pre-emergence action (Table A3); type: in vivo, Lolium rigidum; conditions: application rate 320 g/ha; visual grading after ca. 3 weeks
# In short: as §1
# MATIN [3] = assay: Herbicidal pre-emergence action (Table A4); type: in vivo, Matricaria inodora; conditions: application rate 1280 g/ha; visual grading after ca. 3 weeks
# In short: as §1
# SETVI [4] = assay: Herbicidal pre-emergence action (Table A5); type: in vivo, Setaria viridis; conditions: application rate 320 g/ha; visual grading after ca. 3 weeks
# In short: as §1
# STEME = assay: Herbicidal pre-emergence action (Table A6); type: in vivo, Stellaria media; conditions: application rate 320 g/ha; visual grading after ca. 3 weeks
# In short: as §1
# POAAN = assay: Herbicidal pre-emergence action (Table A7); type: in vivo, Poa annua; conditions: application rate 320 g/ha; visual grading after ca. 3 weeks
# In short: as §1
# ALOMY [5] = assay: Herbicidal pre-emergence action, section C (Table C2); type: in vivo, Alopecurus myosuroides; conditions: visual grading after ca. 3 weeks
# Source text: (§3) Seeds of mono- and dicotyledonous weed plants and crop plants were sown, in plastic or organic planting pots, in sandy loam and covered with soil. The compounds according to the invention, formulated in the form of wettable powders (WP) or as emulsifiable concentrates (EC), were applied to the surface of the covering soil as aqueous suspension or emulsion, with the addition of 0.5% of an additive, at an application rate of 600 1 of water/ha (converted). Following treatment, the pots were placed in a greenhouse and kept under optimum growth conditions for the test plants.
# DIGSA [6] = assay: Herbicidal pre-emergence action, section C (Table C5); type: in vivo, Digitaria sanguinalis; conditions: application rate 80 g/ha; visual grading after ca. 3 weeks
# ECHCG [7] = assay: Herbicidal pre-emergence action, section C (Table C6); type: in vivo, Echinochloa crus-galli; conditions: application rate 80 g/ha; visual grading after ca. 3 weeks
# MATIN [8] = assay: Herbicidal pre-emergence action, section C (Table C8); type: in vivo, Matricaria inodora; conditions: application rate 320 g/ha; visual grading after ca. 3 weeks
# SETVI [9] = assay: Herbicidal pre-emergence action, section C (Table C10); type: in vivo, Setaria viridis; conditions: application rate 80 g/ha; visual grading after ca. 3 weeks
# VERPE [10] = assay: Herbicidal pre-emergence action, section C (Table C11); type: in vivo, Veronica persica; conditions: visual grading after ca. 3 weeks
# Source text: as §3
# VIOTR [11] = assay: Herbicidal pre-emergence action, section C (Table C12); type: in vivo, Viola tricolor; conditions: visual grading after ca. 3 weeks
# ZEAMX [12] = assay: Pre-emergence effects on crop plants (Table D1); type: in vivo, Zea mays; conditions: crop plant; application rate 80 g/ha; visual grading after ca. 3 weeks
# TRZAS [13] = assay: Pre-emergence effects on crop plants (Table D2); type: in vivo, Triticum aestivum; conditions: crop plant; application rate 320 g/ha; visual grading after ca. 3 weeks
# GLXMA [14] = assay: Pre-emergence effects on crop plants (Table D4); type: in vivo, Glycine max; conditions: crop plant; application rate 320 g/ha; visual grading after ca. 3 weeks
# BRSNW [15] = assay: Pre-emergence effects on crop plants (Table D5); type: in vivo, Brassica napus; conditions: crop plant; application rate 320 g/ha; visual grading after ca. 3 weeks
# Source text: Seeds of mono- and dicotyledonous weed plants and crop plants were sown, in plastic or organic planting pots, in sandy loam and covered with soil. The compounds according to the invention, formulated in the form of wettable powders (WP) or as emulsifiable concentrates (EC), were applied to the surface of the covering soil as aqueous suspension or emulsion, with the addition of 0.5% of an additive, at an application rate of 600 1 of water/ha (converted).
# Following treatment, the pots were placed in a greenhouse and kept under optimum growth conditions for the test plants.
# ALOMY [16] = assay: Herbicidal post-emergence action, section E (Table E2); type: in vivo, Alopecurus myosuroides; conditions: assessed visually after ca. 3 weeks
# Source text: (§2) 2 to 3 weeks after sowing, the test plants were sprayed in the single-leaf stage.
# ECHCG [17] = assay: Herbicidal post-emergence action, section E (Table E5); type: in vivo, Echinochloa crus-galli; conditions: application rate 320 g/ha; assessed visually after ca. 3 weeks
# Source text: as §2
# POLCO [18] = assay: Herbicidal post-emergence action, section E (Table E7); type: in vivo, Polygonum convolvulus; conditions: application rate 320 g/ha; assessed visually after ca. 3 weeks
# Source text: as §2
# VERPE [19] = assay: Herbicidal post-emergence action, section E (Table E9); type: in vivo, Veronica persica; conditions: application rate 320 g/ha; assessed visually after ca. 3 weeks
# Source text: as §2
# VIOTR [20] = assay: Herbicidal post-emergence action, section E (Table E10); type: in vivo, Viola tricolor; conditions: application rate 320 g/ha; assessed visually after ca. 3 weeks
# Source text: as §2
# ZEAMX [21] = assay: Post-emergence effects on crop plants (Table F1); type: in vivo, Zea mays; conditions: application rate 320 g/ha, crop plant ZEAMX
# Source text: as §2
# TRZAS [22] = assay: Post-emergence effects on crop plants (Table F2); type: in vivo, Triticum aestivum; conditions: crop plant TRZAS
# Source text: as §2
# ORYZA [23] = assay: Post-emergence effects on crop plants (Table F3); type: in vivo, Oryza sativa; conditions: crop plant ORYZA
# Source text: as §2
# GLXMA [24] = assay: Post-emergence effects on crop plants (Table F4); type: in vivo, Glycine max; conditions: application rate 80 g/ha, crop plant GLXMA
# Source text: as §2
# BRSNW [25] = assay: Post-emergence effects on crop plants (Table F5); type: in vivo, Brassica napus; conditions: crop plant BRSNW
# Source text: as §2
# ORYZA [26] = assay: Pre-emergence effects on crop plants (Table D3); conditions: crop plant; application rate 320 g/ha; visual grading after ca. 3 weeks
# AMARE = assay: Herbicidal pre-emergence action, section C (Table C3); type: in vivo, Amaranthus retroflexus; conditions: application rate 320 g/ha; visual grading after ca. 3 weeks
# AVEFA = assay: Herbicidal pre-emergence action, section C (Table C4); type: in vivo, Avena fatua; conditions: application rate 320 g/ha; visual grading after ca. 3 weeks
# Source text: as §3
# LOLRI [27] = assay: Herbicidal pre-emergence action, section C (Table C7); type: in vivo, Lolium rigidum; conditions: application rate 320 g/ha; visual grading after ca. 3 weeks
# POLCO [28] = assay: Herbicidal pre-emergence action, section C (Table C9); type: in vivo, Polygonum convolvulus; conditions: application rate 80 g/ha; visual grading after ca. 3 weeks
# DIGSA [29] = assay: Herbicidal post-emergence action, section E (Table E4); type: in vivo, Digitaria sanguinalis; conditions: application rate 320 g/ha; assessed visually after ca. 3 weeks
# Source text: as §2
smiles,measurement,setting,value
O=C1N(Cc2cc(F)ccc2F)CCCC12CCCN(Cc1cc(F)ccc1F)C2=O (racemic) [I-017],pre-emergence activity against ECHCG,ECHCG [1],100%
same,pre-emergence activity against LOLRI,LOLRI [2],100%
same,pre-emergence activity against MATIN,MATIN [3],90%
same,pre-emergence activity against SETVI,SETVI [4],100%
same,pre-emergence activity against STEME,STEME,90%
same,pre-emergence activity against POAAN,POAAN,100%
same,pre-emergence activity against ALOMY,ALOMY [5]; application rate 320 g/ha,90%
same,pre-emergence activity against DIGSA,DIGSA [6],100%
same,pre-emergence activity against ECHCG,ECHCG [7],100%
same,pre-emergence activity against MATIN,MATIN [8],80%
same,pre-emergence activity against SETVI,SETVI [9],90%
same,pre-emergence activity against VERPE,VERPE [10]; application rate 80 g/ha,90%
same,pre-emergence activity against VIOTR,VIOTR [11]; application rate 320 g/ha,80%
same,pre-emergence activity against ZEAMX,ZEAMX [12],10%
same,pre-emergence activity against TRZAS,TRZAS [13],10%
same,pre-emergence activity against GLXMA,GLXMA [14],20%
same,pre-emergence activity against BRSNW,BRSNW [15],20%
same,post-emergence activity against ALOMY,ALOMY [16]; application rate 320 g/ha,80%
same,post-emergence activity against ECHCG,ECHCG [17],80%
same,post-emergence activity against POLCO,POLCO [18],100%
same,post-emergence activity against VERPE,VERPE [19],80%
same,post-emergence activity against VIOTR,VIOTR [20],80%
same,post-emergence activity against ZEAMX,ZEAMX [21],10%
same,post-emergence activity against TRZAS,TRZAS [22]; application rate 320 g/ha,10%
same,post-emergence activity against ORYZA,ORYZA [23]; application rate 320 g/ha,0%
same,post-emergence activity against GLXMA,GLXMA [24],20%
same,post-emergence activity against BRSNW,BRSNW [25]; application rate 80 g/ha,0%
same,pre-emergence activity against ORYZA,ORYZA [26],20%
"O=C1N(Cc2c(F)cccc2F)CCCC12CCCN(Cc1c(F)cccc1F)C2=O (single isomer, unassigned; (-)) [I-009, (-)-2,8-bis[(2,6-difluorophenyl)methyl]-2,8-diazaspiro[5.5]undecane-1,7-dione]",pre-emergence activity against ALOMY,ALOMY [5]; application rate 80 g/ha,100%
same,pre-emergence activity against AMARE,AMARE,90%
same,pre-emergence activity against AVEFA,AVEFA,90%
same,pre-emergence activity against DIGSA,DIGSA [6],100%
same,pre-emergence activity against ECHCG,ECHCG [7],100%
same,pre-emergence activity against LOLRI,LOLRI [27],100%
same,pre-emergence activity against MATIN,MATIN [8],90%
same,pre-emergence activity against POLCO,POLCO [28],80%
same,pre-emergence activity against SETVI,SETVI [9],100%
same,pre-emergence activity against VERPE,VERPE [10]; application rate 320 g/ha,90%
same,pre-emergence activity against VIOTR,VIOTR [11]; application rate 80 g/ha,80%
same,post-emergence activity against ALOMY,ALOMY [16]; application rate 80 g/ha,80%
same,post-emergence activity against DIGSA,DIGSA [29],90%
same,post-emergence activity against ECHCG,ECHCG [17],90%
same,post-emergence activity against VERPE,VERPE [19],80%
same,post-emergence activity against ZEAMX,ZEAMX [21],20%
same,post-emergence activity against TRZAS,TRZAS [22]; application rate 80 g/ha,10%
same,post-emergence activity against ORYZA,ORYZA [23]; application rate 80 g/ha,10%
same,post-emergence activity against GLXMA,GLXMA [24],20%
same,post-emergence activity against BRSNW,BRSNW [25]; application rate 320 g/ha,20%
